Reference: ChEMBL document CHEMBL1150212, “Antitumor agents, 129. Tannins and related compounds as selective cytotoxic agents” (1992)

Assays:
Type in all cases: functional
Details in all cases: read-out: ED50 (the source's name)
A549 = assay: Cytotoxicity against human A549 cells by tetrazolium salt-based colorimetric assay
TE-671 = assay: Cytotoxicity against human TE671 cells by tetrazolium salt-based colorimetric assay
[1] = Cytotoxicity against human […] cells by tetrazolium salt-based colorimetric assay
KB = assay: Cytotoxicity against human KB cells by tetrazolium salt-based colorimetric assay
HCT-8 = assay: Cytotoxicity against human HCT8 cells by tetrazolium salt-based colorimetric assay

For O=C(O)c1cc(O)c(O)c(Oc2cc3c(c(O)c2O)-c2c(cc(O)c(O)c2O)C(=O)OC[C@H]2O[C@@H](OC(=O)c4cc(O)c(O)c(O)c4)[C@H](OC(=O)c4cc(O)c(O)c(O)c4)[C@@H](OC(=O)c4cc(O)c(O)c(O)c4)[C@@H]2OC3=O)c1, the EC50 (A549) was greater than 10 µg/mL, the EC50 (TE-671) was greater than 10 µg/mL and the EC50 [1] was 0.44 µg/mL. For the same compound, the EC50 (KB) was greater than 10 µg/mL and the EC50 (HCT-8) was greater than 10 µg/mL.
